Data on 1 molecule can be found in patent US20040072825A1, “2-(2-(4-((2r)-2-methyl-3-(10h-phenothiazin-10-yl)propyl)-1-piperazinyl)-ethoxy) ethanol, process for the preparation thereof, pharmaceutical compositions containing said compound and therapeutic uses thereof” (priority 2000, published 2004).

Broadly, the inhibition is the change of the read-out against control, counted positive when it falls. The IC50 is the midpoint of a concentration-inhibition curve.

Each structure is given as a SMILES string.

Experiment [1] concerns postoperative nausea and vomiting. As to conditions: prophylactic administration, analgesia with morphine; cited from earlier work.
Experiment [2] deals with T1, D4.4 dopaminergic receptor (Homo sapiens, UniProt P21917).
T1 construct: expressed in transfected cells; host or cells: CHO
T1 sequence (P21917 1-419): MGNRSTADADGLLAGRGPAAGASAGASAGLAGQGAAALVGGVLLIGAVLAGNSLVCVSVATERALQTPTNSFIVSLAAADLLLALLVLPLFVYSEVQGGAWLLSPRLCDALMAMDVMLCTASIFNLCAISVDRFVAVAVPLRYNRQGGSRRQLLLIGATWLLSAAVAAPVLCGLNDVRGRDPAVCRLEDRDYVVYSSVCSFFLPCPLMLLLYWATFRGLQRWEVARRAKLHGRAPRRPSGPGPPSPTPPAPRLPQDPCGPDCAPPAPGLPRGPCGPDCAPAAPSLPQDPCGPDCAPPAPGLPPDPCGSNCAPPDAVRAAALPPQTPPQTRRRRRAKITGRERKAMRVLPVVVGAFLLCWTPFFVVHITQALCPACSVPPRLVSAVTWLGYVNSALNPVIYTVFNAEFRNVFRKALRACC
Put plainly: Radioligand binding, D4.4 receptor (CHO cell culture). The method, then: The test substances, biological materials and experimental protocols used in the study are described in Moguilevsky N. et al. (1994) Eur. J. […] List S. J. (1981) Proc. Natl. Acad. Sci.78:2620-2624; MacKenzie R. G. et al. (1994) Eur. J. Pharmacol. 266:79-85; Van Tol et al., (1992) Nature, 358:149-152. […] Filtermat A, Walac), then washed with cold buffer using a filtration unit ‘Cell Harvester’ (Brandel, Packard or Tomtec). The bound radioactivity is measured using a scintillation liquid (Formula 989 or Microscint 0, Packard) or solid (Meltilex B/HS, Wallac), and a scintillation counter (LS 6000, Beckman; Topcount, Packard; Betaplate, Wallac). […] Each experiment was performed in duplicate (n=2). In parallel, a positive control (concentration of reference substance causing 50% inhibition of radioligand specific binding) is tested to validate the assay. For competition experiments, membranes are incubated in the buffer containing the radioligand and increasing concentrations of unlabeled test substances. Each binding assay is validated with a reference compound tested in parallel. […] where BO and BI represent the total binding in the absence and presence of the unlabelled drug (in dpm/assay) and NSB is the amount of non specific binding (in dpm/assay). Analysis of raw data and pIC50 calculation is performed by computerized non-linear curve fitting methods using a set of equations describing competitive interactions between labelled and unlabeled ligands which obey the law of mass action. IC50 represents the concentration of the test substance inhibiting 50% of the specific binding of the radioligand. It is determined in competitive binding experiments by measuring the binding of a single concentration of a radioactive ligand at equilibrium with various concentrations of the unlabeled test substance. pIC50=−log IC50

Take `CC(CN1CCN(CCOCCO)CC1)CN1c2ccccc2Sc2ccccc21` (racemic) [Dixyrazine, 2-(2-(4-(2-methyl-3-(10H-phenothiazin-10-yl)propyl)-1-piperazinyl)ethoxy)ethanol, reference compound]: the “incidence and severity of vomiting (in words)” value in experiment [1] is “reduces the incidence and severity of vomiting”. Further, the inhibition at 0.1 µM in experiment [2] (D4.4, 0.1 μM, mean of duplicate, read-out: percent inhibition of control specific binding) amounted to 24%. Besides, in experiment [2] (D4.4, 10 μM, mean of duplicate, 10 µM), the “percent inhibition of control specific binding” value came to 104%. In addition, the inhibition at 10 µM in experiment [2] (D4.4, 10 μM, mean of duplicate, read-out: percent inhibition of control specific binding) is more than 90%. Further, the half-inhibitory concentration (IC50) in experiment [2] (D4.4, competitive binding, read-out: Affinity pIC50 (-log IC50) (converted)) is 398 nM.
